Reference: the NIST ThermoML archive (doi:10.1021/acs.jced.6b00829)
± gives the expanded uncertainty stated by the source.

Assays:
[1] = 298.15 K; 101.33 kPa; Liquid; Vibrating tube method
[2] = refractive index (Na D-line) (dimensionless); settings: 298.15 K; 101.33 kPa; Liquid; Standard Abbe refractometry

Row | SMILES | mass density [1] [kg/m3] | refractive index [2]
1 | CCCCn1cc[n+](C)c1.F[P-](F)(F)(F)(F)F [1-butyl-3-methylimidazolium hexafluorophosphate] | 1367.4 ± 2.1 | 1.4095 ± 0.0008
2 | CCO [ethanol] | 786.47 ± 2 | 1.3594 ± 0.0008
3 | O [water] |  | 1.3325 ± 0.0008
